Where “and” joins values, the source holds several entries; their conditions need not be identical. Identical values can stand only once.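 Tested at 5 concentrations; 48 h exposure; 96-well plates; endpoints linearly interpolated, else capped at highest concentration. At the GI50, growth is halved. TGI: total growth inhibition.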
Legend:
Experiment in all cases: NCI anticancer screen, dose series, 48 h
COLO 205 colon = tested on: COLO 205 colon
HL-60(TB) leukemia = tested on: HL-60(TB) leukemia
KM12 colon = tested on: KM12 colon
NCI-H226 lung = tested on: NCI-H226 lung
NCI-H23 lung = tested on: NCI-H23 lung
OVCAR-5 ovarian = tested on: OVCAR-5 ovarian
SNB-75 CNS = tested on: SNB-75 CNS
SR leukemia = tested on: SR leukemia
SW-620 colon = tested on: SW-620 colon
U251 CNS = tested on: U251 CNS

| SMILES | GI50 (COLO 205 colon) | TGI (COLO 205 colon) [µM] | GI50 (HL-60(TB) leukemia) | TGI (HL-60(TB) leukemia) | GI50 (KM12 colon) | TGI (KM12 colon) | GI50 (NCI-H226 lung) | TGI (NCI-H226 lung) | GI50 (NCI-H23 lung) [µM] | TGI (NCI-H23 lung) [µM] | GI50 (OVCAR-5 ovarian) | TGI (OVCAR-5 ovarian) [µM] | GI50 (SNB-75 CNS) | TGI (SNB-75 CNS) | GI50 (SR leukemia) [µM] | TGI (SR leukemia) | GI50 (SW-620 colon) [µM] | TGI (SW-620 colon) [µM] | GI50 (U251 CNS) | TGI (U251 CNS) [µM] |
| --- | --- | --- | --- | --- | --- | --- | --- | --- | --- | --- | --- | --- | --- | --- | --- | --- | --- | --- | --- | --- |
| COC(=O)[C@H](C)NC(=O)[C@@H](OC)[C@@H]1Cc2cc3cc(OC4CC(OC5CC(O)C(O)C(C)O5)C(O)C(C)O4)c(C)c(O)c3c(O)c2C(=O)[C@H]1OC1CC(OC2CC(OC3CC(C)(O)C(O)C(C)O3)C(O)C(C)O2)C(O)C(C)O1 (some centres not stated) | 0.0934 µM | 1.09 | 0.894 µM | 10.6 µM | 0.0944 µM | > 50 µM | 0.106 µM | 0.495 µM | 0.0939 | > 50 | 0.158 µM | > 50 | 0.0911 µM | 0.774 µM | 0.0271 | > 50 µM | 0.116 | > 50 | 0.073 µM | > 50 |
| COc1cc(C2CC(=O)Nc3c2ccc2ccccc32)cc(Br)c1OC (configuration not stated) | 0.369 µM | 1.35 | 0.212 µM | 0.462 µM | 0.532 µM | > 41.2 µM | 6.4 µM | > 100 µM | 0.565 | > 100 | 2.01 µM | > 79.3 | 0.224 µM | 2.43 µM | 0.35 | 16.7 µM | 0.359 | > 100 | 0.433 µM | > 37.9 |
| CCOC(=O)C(C(=O)OCC)C(=O)c1ccccc1C(=O)c1ccccc1 | – | > 100 | – | > 100 µM | – | > 100 µM | – | > 100 µM | – | > 100 | – | > 100 | – | > 100 µM | – | 48.8 µM | – | 50.5 | – | > 100 |
| C=C1C(OC/C=C/COC2O[C@@H]3O[C@@]4(C)CC[C@H]5[C@H](C)CC[C@@H](C2=C)[C@@]35OO4)O[C@@H]2O[C@@]3(C)CC[C@H]4[C@H](C)CC[C@@H]1[C@@]24OO3 (some centres not stated) | 0.226 µM | 13.6 | – | 47.1 µM | < 0.024 µM | 0.778 µM | 4.32 µM | 33.5 µM | 0.0708 | 14.2 | 0.0489 µM | 18.8 | 7.99 µM | 31.1 µM | 0.0315 | 2.6 µM | 0.0863 | 23.6 | 12.1 µM | 25.7 |
| O=c1oc2c3ccc4cnccc4c3[nH]c2c2ccccc12 | 4.24 µM | 17.4 | 17.3 µM | > 100 µM | 13.1 µM | > 100 µM | 26.6 µM | 72.6 µM | 23.3 | 80.1 | 16.9 µM | 40.9 | 20.6 µM | 65.6 µM | 1.78 | 4.19 µM | 4.58 | 23.5 | 7.57 µM | 20.8 |
| COc1ccc(-c2cc(-c3cccc(NS(C)(=O)=O)c3)nc(N)c2C#N)cc1 | 0.0747 µM | 0.607 | 0.0637 µM | 1.26 µM | 0.118 µM | 9.12 µM | 0.0725 µM | 28.2 µM | 0.256 | 39.8 | 0.416 µM | > 64.6 | 0.0316 µM | 0.769 µM | 0.047 | 25.7 µM | 0.048 | > 100 | 0.0577 µM | 19.3 |
| CCOC(=O)C1=C(Nc2ccc(Br)cc2)OC/C1=N\NC(=O)c1ccccc1O | – | > 100 | – | 37.2 µM | – | > 100 µM | – | > 84 µM | – | 33.1 | – | > 100 | – | > 48.3 µM | – | 18.4 µM | – | > 49.4 | – | > 100 |
| COc1cc(NC(=O)NCc2ccco2)ccc1-c1ccc(NC(=O)NCc2ccco2)cc1OC | 3.1 µM | > 100 | > 100 µM | > 100 µM | 1.82 µM | > 100 µM | 1.46 µM | 7.92 µM | 2.99 | 11 | 19.5 µM | > 100 | 1.02 µM | 4 µM | 0.458 | > 100 µM | 6.15 | > 100 | 0.957 µM | 4.3 |
| NCCCN1CCN(CCCNc2nc3ccccc3c3[nH]c4ccccc4c23)CC1 | 0.214 µM | 1.05 | 0.425 µM | 3.26 µM | 0.415 µM | – | 0.442 µM | 1.1 µM | 0.387 | 1.44 | 0.292 µM | 1.48 | 0.691 µM | 1.99 µM | 0.352 | 71.9 µM | 0.326 | 7.66 | 0.373 µM | 4.54 |
| CCC1(NC(=O)c2cc(F)c(F)c(F)c2F)C(=O)NC(=O)N(C(C)C)C1=O (configuration not stated) | 27.5 µM | > 100 | 3.82 µM | 24.9 µM | > 100 µM | > 100 µM | 19.1 µM | 46.4 µM | 16.5 | 61.5 | > 100 µM | > 100 | 21.3 µM | 45.9 µM | 2.98 | 9.65 µM | 20.1 | 50.7 | 25.6 µM | 91.3 |
| CC(C)C[C@H](NC(=O)[C@@H](NC(=O)c1cccc(-c2ccccc2)n1)[C@@H](C)O)B(O)O | 0.00813 µM and < 0.0126 µM | 3.3 | 0.00379 µM and 0.0101 µM | 0.162 µM and 0.0287 µM | 0.0132 µM and 0.0127 µM | 0.0672 µM and 0.022 µM | 0.00219 µM and < 0.0116 µM | 0.00538 µM and 0.0245 µM | 0.00633 | – | 0.00843 µM and < 0.0112 µM | 0.0513 | 0.0144 µM and 0.0105 µM | 0.0454 µM and 0.0308 µM | 0.00301 | 0.00843 µM and < 0.102 µM | 0.00411 | 2.34 | 0.0251 µM and 0.0176 µM | 1.92 |
| COc1c(Cl)ccc2c(-c3nc4cc(Cl)c(F)cc4s3)cc(=O)oc12 | 10.1 µM | 38.3 | 2.44 µM | 5.39 µM | 4.06 µM | 22.1 µM | 11.7 µM | > 69.3 µM | 3.25 | > 73.7 | 15.3 µM | > 53.3 | 1.56 µM | 3.28 µM | 2.2 | 8.23 µM | 10.3 | > 100 | 7.57 µM | 44.7 |
| COC(=O)[C@]12CC[C@@H](C)[C@H](C)[C@@H]1C1=CC[C@@H]3[C@@]4(C)C(C=O)=C[C@@](C)(COS(C)(=O)=O)C4[C@H](O)C[C@@]3(C)[C@]1(C)CC2 (some centres not stated) | 1.85 µM | 3.93 | 1.17 µM | 4.24 µM | 1.83 µM | 3.96 µM | 2.88 µM | 7.31 µM | 1.68 | 3.63 | 1.96 µM | 6.5 | 1.51 µM | 8.86 µM | 0.299 | 1.38 µM | 2.36 | 5.7 | 1.65 µM | 3.17 |
